Measurements as given in PubChem BioAssay (NCI).
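GI50: concentration for 50% inhibition of growth. TGI: concentration producing complete growth inhibition.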

Columns and labels:
Assay in all cases: DTP human tumour cell line panel, 384-well format; in the data active = GI50 below about 0.43 µM; inactive = the rest
SK-OV-3 ovarian = system: SK-OV-3 ovarian
COLO 205 colon = system: COLO 205 colon
SN12C renal = system: SN12C renal
HOP-92 NSCLC = system: HOP-92 NSCLC
HCT-15 colon = system: HCT-15 colon
PC-3 prostate = system: PC-3 prostate
BT-549 breast = system: BT-549 breast
HCC-2998 colon = system: HCC-2998 colon
MCF7 breast = system: MCF7 breast
MOLT-4 leukemia = system: MOLT-4 leukemia
MDA-MB-468 breast = system: MDA-MB-468 breast
ACHN renal = system: ACHN renal
SW-620 colon = system: SW-620 colon
HL-60(TB) leukemia = system: HL-60(TB) leukemia
SNB-75 CNS = system: SNB-75 CNS
RXF 393 renal = system: RXF 393 renal
DU-145 prostate = system: DU-145 prostate
HT29 colon = system: HT29 colon
UACC-62 melanoma = system: UACC-62 melanoma
KM12 colon = system: KM12 colon
T-47D breast = system: T-47D breast
UO-31 renal = system: UO-31 renal
M14 melanoma = system: M14 melanoma
SNB-19 CNS = system: SNB-19 CNS
OVCAR-3 ovarian = system: OVCAR-3 ovarian
UACC-257 melanoma = system: UACC-257 melanoma
MDA-MB-231 breast = system: MDA-MB-231 breast
SF-268 CNS = system: SF-268 CNS
NCI-H23 lung = system: NCI-H23 lung
SF-295 CNS = system: SF-295 CNS
IGROV1 ovarian = system: IGROV1 ovarian
HOP-62 NSCLC = system: HOP-62 NSCLC
NCI/ADR-RES ovarian = system: NCI/ADR-RES ovarian
CAKI-1 renal = system: CAKI-1 renal
HCT-116 colon = system: HCT-116 colon
SK-MEL-5 melanoma = system: SK-MEL-5 melanoma
NCI-H322M lung = system: NCI-H322M lung
U251 glioblastoma = system: U251 glioblastoma
HS 578T breast = system: HS 578T breast
A549 NSCLC = system: A549 NSCLC
NCI-H522 lung = system: NCI-H522 lung
SK-MEL-28 melanoma = system: SK-MEL-28 melanoma
OVCAR-8 ovarian = system: OVCAR-8 ovarian
RPMI-8226 leukemia = system: RPMI-8226 leukemia
TK-10 renal = system: TK-10 renal
OVCAR-4 ovarian = system: OVCAR-4 ovarian
OVCAR-5 ovarian = system: OVCAR-5 ovarian
LOX IMVI melanoma = system: LOX IMVI melanoma
A498 renal = system: A498 renal
MDA-MB-435 melanoma = system: MDA-MB-435 melanoma
EKVX NSCLC = system: EKVX NSCLC
NCI-H226 lung = system: NCI-H226 lung
786-0 renal = system: 786-0 renal
CCRF-CEM leukemia = system: CCRF-CEM leukemia
NCI-H460 NSCLC = system: NCI-H460 NSCLC
MALME-3M melanoma = system: MALME-3M melanoma
SF-539 CNS = system: SF-539 CNS

C[C@H]1Oc2cc(cnc2N)-c2c(nn(C)c2C#N)CN(C)C(=O)c2ccc(F)cc21
> 54 µM: TGI (UO-31 renal)
> 86.2 µM: TGI (MDA-MB-468 breast)
> 73.1 µM: TGI (NCI-H226 lung)
99.5 µM: TGI (NCI-H522 lung)
18.8 µM: TGI (MOLT-4 leukemia)
44.1 µM: TGI (EKVX NSCLC)
> 84.7 µM: TGI (SNB-75 CNS)
> 24.9 µM: TGI (ACHN renal)
> 63.1 µM: TGI (RXF 393 renal)
> 100 µM: TGI (SK-OV-3 ovarian) | TGI (SN12C renal) | TGI (HCT-15 colon) | TGI (PC-3 prostate) | TGI (BT-549 breast) | TGI (HCC-2998 colon) | TGI (MCF7 breast) | TGI (SW-620 colon) | TGI (HL-60(TB) leukemia) | TGI (DU-145 prostate) | TGI (HT29 colon) | TGI (UACC-62 melanoma) | TGI (KM12 colon) | TGI (T-47D breast) | TGI (M14 melanoma) | TGI (SNB-19 CNS) | TGI (OVCAR-3 ovarian) | TGI (UACC-257 melanoma) | TGI (SF-268 CNS) | TGI (NCI-H23 lung) | TGI (SF-295 CNS) | TGI (HOP-62 NSCLC) | TGI (NCI/ADR-RES ovarian) | TGI (CAKI-1 renal) | TGI (HCT-116 colon) | TGI (SK-MEL-5 melanoma) | TGI (U251 glioblastoma) | TGI (HS 578T breast) | TGI (A549 NSCLC) | TGI (SK-MEL-28 melanoma) | TGI (OVCAR-8 ovarian) | TGI (RPMI-8226 leukemia) | TGI (TK-10 renal) | TGI (OVCAR-4 ovarian) | TGI (OVCAR-5 ovarian) | TGI (LOX IMVI melanoma) | TGI (A498 renal) | TGI (MDA-MB-435 melanoma) | TGI (786-0 renal) | TGI (CCRF-CEM leukemia) | TGI (NCI-H460 NSCLC) | TGI (MALME-3M melanoma) | TGI (SF-539 CNS)
67.6 µM: TGI (HOP-92 NSCLC)
> 83.6 µM: TGI (IGROV1 ovarian)
> 84.1 µM: TGI (COLO 205 colon)
inactive: GI50 (SK-OV-3 ovarian) 68.2 µM | GI50 (COLO 205 colon) 11.1 µM | GI50 (SN12C renal) 61.6 µM | GI50 (HOP-92 NSCLC) 11 µM | GI50 (HCT-15 colon) 91.9 µM | GI50 (PC-3 prostate) > 100 µM | GI50 (BT-549 breast) > 100 µM | GI50 (HCC-2998 colon) > 100 µM | GI50 (MCF7 breast) 17.5 µM | GI50 (MOLT-4 leukemia) 4.84 µM | GI50 (MDA-MB-468 breast) 23.8 µM | GI50 (ACHN renal) 11.4 µM | GI50 (SW-620 colon) > 100 µM | GI50 (HL-60(TB) leukemia) 63.8 µM | GI50 (SNB-75 CNS) 34.4 µM | GI50 (RXF 393 renal) 11.6 µM | GI50 (DU-145 prostate) 49.8 µM | GI50 (HT29 colon) 18 µM | GI50 (UACC-62 melanoma) 32.8 µM | GI50 (T-47D breast) 57.2 µM | GI50 (UO-31 renal) 37.3 µM | GI50 (M14 melanoma) 56.3 µM | GI50 (SNB-19 CNS) > 100 µM | GI50 (OVCAR-3 ovarian) > 88 µM | GI50 (UACC-257 melanoma) > 100 µM | GI50 (MDA-MB-231 breast) 14.6 µM | GI50 (SF-268 CNS) 47.3 µM | GI50 (NCI-H23 lung) 24.3 µM | GI50 (SF-295 CNS) 72.8 µM | GI50 (IGROV1 ovarian) 26.1 µM | GI50 (HOP-62 NSCLC) 15.7 µM | GI50 (NCI/ADR-RES ovarian) 41.6 µM | GI50 (CAKI-1 renal) 26.5 µM | GI50 (HCT-116 colon) 32.1 µM | GI50 (SK-MEL-5 melanoma) 50.2 µM | GI50 (NCI-H322M lung) 23.6 µM | GI50 (U251 glioblastoma) > 100 µM | GI50 (HS 578T breast) 19.9 µM | GI50 (A549 NSCLC) 22 µM | GI50 (NCI-H522 lung) 33.7 µM | GI50 (SK-MEL-28 melanoma) > 79.1 µM | GI50 (OVCAR-8 ovarian) > 100 µM | GI50 (RPMI-8226 leukemia) 57 µM | GI50 (TK-10 renal) > 92.9 µM | GI50 (OVCAR-4 ovarian) > 100 µM | GI50 (OVCAR-5 ovarian) 37.7 µM | GI50 (LOX IMVI melanoma) > 71.9 µM | GI50 (A498 renal) > 95.6 µM | GI50 (MDA-MB-435 melanoma) > 100 µM | GI50 (EKVX NSCLC) 9.26 µM | GI50 (NCI-H226 lung) 23 µM | GI50 (786-0 renal) 49.7 µM | GI50 (CCRF-CEM leukemia) 57.1 µM | GI50 (NCI-H460 NSCLC) 35.7 µM | GI50 (MALME-3M melanoma) 26.2 µM | GI50 (SF-539 CNS) > 100 µM
active: GI50 (KM12 colon) 0.364 µM
84.5 µM: TGI (MDA-MB-231 breast)
> 78.6 µM: TGI (NCI-H322M lung)
